Data from patent publication US11180462B2, “Microbiocidal oxadiazole derivatives” (SYNGENTA PARTICIPATIONS AG, priority 2015, dated 2021).

Legend:
[1] = test system: Puccinia recondita f. Sp. Tritici; assay: Fungicidal activity against Puccinia recondita f. sp. tritici / wheat / leaf disc curative (brown rust); format: in vivo; details: foliar, 24 h, 200 ppm in the applied formulation, wheat leaf segments, curative (applied 1 day after inoculation), compared to untreated control leaf disks, read-out: disease control
Outline: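 Wheat cv. Kanzler leaf segments on agar, inoculated with rust spore suspension, kept dark at 19° C and 75% RH; formulated compound sprayed 1 day post-inoculation. Incubated 19° C, 75% RH, 12 h light/12 h dark; percent disease control vs untreated scored 6 to 8 days after application.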

[2] = test system: Puccinia recondita f. Sp. Tritici; assay: Fungicidal activity against Puccinia recondita f. sp. tritici / wheat / leaf disc preventative (brown rust); format: in vivo; details: foliar, 200 ppm in the applied formulation, wheat leaf segments, preventative, compared to untreated control leaf disks, read-out: disease control
Outline: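 Preventative leaf-segment test, wheat cv. Kanzler on water agar. Spray compound at 200 ppm, inoculate with spores 1 day later; 19° C., 75% rh, 12/12 h light. Read-out: % disease control vs untreated, 7 to 9 days after application.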

[3] = test system: Glomerella lagenarium (Colletotrichum lagenarium); assay: Fungicidal activity against Glomerella lagenarium (Colletotrichum lagenarium) liquid culture / cucumber / preventative (anthracnose); format: cell-based; details: Colletotrichum orbiculare; 20 ppm in the applied formulation; liquid culture (PDB), growth inhibition measured photometrically after 3 to 4 days; compared to untreated control; read-out: disease control
Outline: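 Photometric read-out of fungal growth after 2–7 days, expressed as percent antifungal activity versus untreated check. Cryo-stored conidia in PDB; compound at 20 ppm; dark, 24 °C, 96% RH.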

[4] = test system: Phakopsora Pachyrhizi; assay: Fungicidal activity against Phakopsora pachyrhizi / soybean / leaf disc preventative (Asian soybean rust); format: in vivo; details: foliar, 200 ppm in the applied formulation, soybean leaf disks, compared to untreated control leaf disks, read-out: disease control
Outline: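 Preventative soybean leaf-disc test: discs on water agar sprayed with diluted formulated compound, inoculated one day later with spores on the lower surface. Held 24–36 h dark at 20°C, 75% rh, then 12 h light/day; percent disease control versus untreated discs scored 12–14 days after application.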

O=C(C1CCCO1)N(Cc1ccc(-c2noc(C(F)(F)F)n2)cc1)CC1CC1 (stereo not drawn) [Compound 1.242, N-(cyclopropylmethyl)-N-[[4-[5-(trifluoromethyl)-1,2,4-oxadiazol-3-yl]phenyl]methyl]-tetrahydrofuran-2-carboxamide]
≥ 80%: pest or weed control at 200 ppm [1] | pest or weed control at 200 ppm [2] | inhibition of growth at 20 ppm [3] | pest or weed control at 200 ppm [4]

N#CCC(=O)N(Cc1ccc(-c2noc(C(F)(F)F)n2)cc1)CC1CC1 [Compound 1.243, 2-cyano-N-(cyclopropylmethyl)-N-[[4-[5-(trifluoromethyl)-1,2,4-oxadiazol-3-yl]phenyl]methyl]-acetamide]
≥ 80%: pest or weed control at 200 ppm [1] | pest or weed control at 200 ppm [2] | inhibition of growth at 20 ppm [3] | pest or weed control at 200 ppm [4]

N#CC1(C(=O)N(Cc2ccc(-c3noc(C(F)(F)F)n3)cc2)CC2CC2)CC1 [Compound 1.244, 1-cyano-N-(cyclopropylmethyl)-N-[[4-[5-(trifluoromethyl)-1,2,4-oxadiazol-3-yl]phenyl]methyl]-cyclopropane-carboxamide]
≥ 80%: pest or weed control at 200 ppm [1] | pest or weed control at 200 ppm [2] | inhibition of growth at 20 ppm [3] | pest or weed control at 200 ppm [4]

COC(C)C(=O)N(Cc1ccc(-c2noc(C(F)(F)F)n2)cc1)CC1CC1 (stereo not drawn) [Compound 1.245, N-(cyclopropylmethyl)-2-methoxy-N-[[4-[5-(trifluoromethyl)-1,2,4-oxadiazol-3-yl]phenyl]methyl]-propanamide]
≥ 80%: pest or weed control at 200 ppm [1] | pest or weed control at 200 ppm [2] | inhibition of growth at 20 ppm [3] | pest or weed control at 200 ppm [4]

COCC(=O)N(OC)C(C)c1ccc(-c2noc(C(F)(F)F)n2)cc1 (stereo not drawn) [Compound 1.253, N,2-dimethoxy-N-(1-[4-[5-(trifluoromethyl)-1,2,4-oxadiazol-3-yl]phenyl]ethyl]-acetamide]
≥ 80%: pest or weed control at 200 ppm [1] | pest or weed control at 200 ppm [2] | inhibition of growth at 20 ppm [3] | pest or weed control at 200 ppm [4]

CCOCC(=O)N(OC)C(C)c1ccc(-c2noc(C(F)(F)F)n2)cc1 (stereo not drawn) [Compound 1.264, 2-ethoxy-N-methoxy-N-[1-[4-[5-(trifluoromethyl)-1,2,4-oxadiazol-3-yl]phenyl]ethyl]-acetamide]
≥ 80%: pest or weed control at 200 ppm [1] | pest or weed control at 200 ppm [2] | inhibition of growth at 20 ppm [3] | pest or weed control at 200 ppm [4]

CON(C(=O)C1CCCO1)C(C)c1ccc(-c2noc(C(F)(F)F)n2)cc1 (stereo not drawn) [Compound 1.273, N-methoxy-N-[1-[4-[5-(trifluoromethyl)-1,2,4-oxadiazol-3-yl]phenyl]ethyl]-tetrahydrofuran-2-carboxamide]
≥ 80%: pest or weed control at 200 ppm [1] | pest or weed control at 200 ppm [2] | inhibition of growth at 20 ppm [3] | pest or weed control at 200 ppm [4]

CON(C(=O)C1CC1F)C(C)c1ccc(-c2noc(C(F)(F)F)n2)cc1 (stereo not drawn) [Compound 1.275, 2-fluoroN-methoxy-N-[1-[4-[5-(trifluoromethyl)-1,2,4-oxadiazol-3-yl]phenyl]ethyl]-cyclopropane-carboxamide]
≥ 80%: pest or weed control at 200 ppm [1] | pest or weed control at 200 ppm [2] | inhibition of growth at 20 ppm [3] | pest or weed control at 200 ppm [4]

CCCON(Cc1ccc(-c2noc(C(F)(F)F)n2)cc1)C(=O)C1(C)COC1 [Compound 1.309, 3-methyl-N-propoxy-N-[[4-[5-(trifluoromethyl)-1,2,4-oxadiazol-3-yl]phenyl]methyl]-oxetane-3-carboxamide]
≥ 80%: pest or weed control at 200 ppm [1] | pest or weed control at 200 ppm [2] | inhibition of growth at 20 ppm [3] | pest or weed control at 200 ppm [4]

CCCON(Cc1ccc(-c2noc(C(F)(F)F)n2)cc1)C(=O)C1CCCN1C(C)=O (stereo not drawn) [Compound 1.314, 1-acetyl-N-propoxy-N-[[4-[5-(trifluoromethyl)-1,2,4-oxadiazol-3-yl]phenyl]methyl]-pyrrolidine-2-carboxamide]
≥ 80%: pest or weed control at 200 ppm [1] | pest or weed control at 200 ppm [2] | inhibition of growth at 20 ppm [3] | pest or weed control at 200 ppm [4]

CCCON(Cc1ccc(-c2noc(C(F)(F)F)n2)cc1)C(=O)C1CC1F (stereo not drawn) [Compound 1.315, 2-fluoro-N-propoxy-N-[[4-[5-(trifluoromethyl)-1,2,4-oxadiazol-3-yl]phenyl]methyl]-cyclopropane-carboxamide]
≥ 80%: pest or weed control at 200 ppm [1] | pest or weed control at 200 ppm [2] | inhibition of growth at 20 ppm [3] | pest or weed control at 200 ppm [4]

CCCON(Cc1ccc(-c2noc(C(F)(F)F)n2)cc1)C(=O)C(C)OC (stereo not drawn) [Compound 1.316, 2-methoxy-N-propoxy-N-[[4-[5-(trifluoromethyl)-1,2,4-oxadiazol-3-yl]phenyl]methyl]-propanamide]
≥ 80%: pest or weed control at 200 ppm [1] | pest or weed control at 200 ppm [2] | inhibition of growth at 20 ppm [3] | pest or weed control at 200 ppm [4]

COCCN(Cc1ccc(-c2noc(C(F)(F)F)n2)cc1)C(=O)C1CCCCO1 (stereo not drawn) [Compound 1.324, N-(2-methoxyethyl)-N-[[4-[5-(trifluoromethyl)-1,2,4-oxadiazol-3-yl]phenyl]methyl]-tetrahydropyran-2-carboxamide]
≥ 80%: pest or weed control at 200 ppm [1] | pest or weed control at 200 ppm [2] | inhibition of growth at 20 ppm [3] | pest or weed control at 200 ppm [4]

COCCN(Cc1ccc(-c2noc(C(F)(F)F)n2)cc1)C(=O)C(C)C [Compound 1.325, N-(2-methoxyethyl)-2-methyl-N-[[4-[5-(trifluoromethyl)-1,2,4-oxadiazol-3-yl]phenyl]methyl]-propanamide]
≥ 80%: pest or weed control at 200 ppm [1] | pest or weed control at 200 ppm [2] | inhibition of growth at 20 ppm [3] | pest or weed control at 200 ppm [4]

COCCN(Cc1ccc(-c2noc(C(F)(F)F)n2)cc1)C(=O)C1CC1(F)F (stereo not drawn) [Compound 1.327, 2,2-difluoro-N-(2-methoxyethyl)-N-[[4-[5-(trifluoromethyl)-1,2,4-oxadiazol-3-yl]phenyl]methyl]-cyclopropane-carboxamide]
≥ 80%: pest or weed control at 200 ppm [1] | pest or weed control at 200 ppm [2] | inhibition of growth at 20 ppm [3] | pest or weed control at 200 ppm [4]

CCCC(=O)N(CCOC)Cc1ccc(-c2noc(C(F)(F)F)n2)cc1 [Compound 1.329, N-(2-methoxyethyl)-N-[[4-[5-(trifluoromethyl)-1,2,4-oxadiazol-3-yl]phenyl]methyl]-butanamide]
≥ 80%: pest or weed control at 200 ppm [1] | pest or weed control at 200 ppm [2] | inhibition of growth at 20 ppm [3] | pest or weed control at 200 ppm [4]

COCCN(Cc1ccc(-c2noc(C(F)(F)F)n2)cc1)C(=O)CC1CC1 [Compound 1.331, 2-cyclopropyl-N-(2-methoxyethyl)-N-[[4-[5-(trifluoromethyl)-1,2,4-oxadiazol-3-yl]phenyl]methyl]-acetamide]
≥ 80%: pest or weed control at 200 ppm [1] | pest or weed control at 200 ppm [2] | inhibition of growth at 20 ppm [3] | pest or weed control at 200 ppm [4]

COCCC(=O)N(CCOC)Cc1ccc(-c2noc(C(F)(F)F)n2)cc1 [Compound 1.335, 3-methoxy-N-(2-methoxyethyl)-N-[[4-[5-(trifluoromethyl)-1,2,4-oxadiazol-3-yl]phenyl]methyl]-propanamide]
≥ 80%: pest or weed control at 200 ppm [1] | pest or weed control at 200 ppm [2] | inhibition of growth at 20 ppm [3] | pest or weed control at 200 ppm [4]
